Data reported in ChEMBL document CHEMBL1152860, “Synthesis and antiproliferative activity of 3-amino-N-phenyl-1H-indazole-1-carboxamides” (2009).

Tests used:
Format in all cases: functional
HT-29 = assay: Growth inhibition of human HT-29 cells after 48 hrs by SRB assay; settings: HT-29, 48 h
CCRF-CEM = assay: Growth inhibition of human CCRF-CEM cells after 48 hrs by SRB assay
HL-60(TB) = assay: Growth inhibition of human HL-60(TB) cells after 48 hrs by SRB assay; settings: HL-60, 48 h
K562 = assay: Growth inhibition of human K562 cells after 48 hrs by SRB assay; settings: K562, 48 h
MOLT-4 = assay: Growth inhibition of human MOLT4 cells after 48 hrs by SRB assay; settings: MOLT-4, 48 h
RPMI-8226 = assay: Growth inhibition of human RPMI8226 cells after 48 hrs by SRB assay; settings: RPMI-8226, 48 h
SR = assay: Growth inhibition of human SR cells after 48 hrs by SRB assay
A549 = assay: Growth inhibition of human A549 cells after 48 hrs by SRB assay; settings: A549, 48 h
EKVX = assay: Growth inhibition of human EKVX cells after 48 hrs by SRB assay
HOP-62 = assay: Growth inhibition of human HOP62 cells after 48 hrs by SRB assay; settings: HOP-62, 48 h
HOP-92 = assay: Growth inhibition of human HOP92 cells after 48 hrs by SRB assay; settings: HOP-92, 48 h
NCI-H226 = assay: Growth inhibition of human NCI-H226 cells after 48 hrs by SRB assay; settings: NCI-H226, 48 h
NCI-H23 = assay: Growth inhibition of human NCI-H23 cells after 48 hrs by SRB assay; settings: NCI-H23, 48 h
NCI-H322M = assay: Growth inhibition of human NCI-H322M cells after 48 hrs by SRB assay
NCI-H460 = assay: Growth inhibition of human NCI-H460 cells after 48 hrs by SRB assay; settings: NCI-H460, 48 h
NCI-H522 = assay: Growth inhibition of human NCI-H522 cells after 48 hrs by SRB assay; settings: NCI-H522, 48 h
COLO 205 = assay: Growth inhibition of human COLO205 cells after 48 hrs by SRB assay; settings: COLO 205, 48 h
HCC 2998 = assay: Growth inhibition of human HCC2998 cells after 48 hrs by SRB assay; settings: HCC 2998, 48 h
HCT-116 = assay: Growth inhibition of human HCT116 cells after 48 hrs by SRB assay; settings: HCT-116, 48 h
HCT-15 = assay: Growth inhibition of human HCT15 cells after 48 hrs by SRB assay; settings: HCT-15, 48 h
LOX IMVI = assay: Growth inhibition of human LOXIMVI cells after 48 hrs by SRB assay
Malme-3M = assay: Growth inhibition of human MALME-3M cells after 48 hrs by SRB assay
M14 = assay: Growth inhibition of human M14 cells after 48 hrs by SRB assay; settings: M14, 48 h
SK-MEL-2 = assay: Growth inhibition of human SK-MEL-2 cells after 48 hrs by SRB assay; settings: SK-MEL-2, 48 h
SK-MEL-28 = assay: Growth inhibition of human SK-MEL-28 cells after 48 hrs by SRB assay; settings: SK-MEL-28, 48 h
SK-MEL-5 = assay: Growth inhibition of human SK-MEL-5 cells after 48 hrs by SRB assay; settings: SK-MEL-5, 48 h
UACC-257 = assay: Growth inhibition of human UACC257 cells after 48 hrs by SRB assay; settings: UACC-257, 48 h
UACC-62 = assay: Growth inhibition of human UACC62 cells after 48 hrs by SRB assay; settings: UACC-62, 48 h
IGROV-1 = assay: Growth inhibition of human IGROV1 cells after 48 hrs by SRB assay; settings: IGROV-1, 48 h
OVCAR-3 = assay: Growth inhibition of human OVCAR-3 cells after 48 hrs by SRB assay; settings: OVCAR-3, 48 h
OVCAR-4 = assay: Growth inhibition of human OVCAR4 cells after 48 hrs by SRB assay; settings: OVCAR-4, 48 h
OVCAR-5 = assay: Growth inhibition of human OVCAR5 cells after 48 hrs by SRB assay; settings: OVCAR-5, 48 h
OVCAR-8 = assay: Growth inhibition of human OVCAR8 cells after 48 hrs by SRB assay; settings: OVCAR-8, 48 h
SK-OV-3 = assay: Growth inhibition of human SKOV3 cells after 48 hrs by SRB assay; settings: SK-OV-3, 48 h
786-0 = assay: Growth inhibition of human 786-0 cells after 48 hrs by SRB assay; settings: 786-0, 48 h
A498 = assay: Growth inhibition of human A498 cells after 48 hrs by SRB assay; settings: A498, 48 h
ACHN = assay: Growth inhibition of human ACHN cells after 48 hrs by SRB assay
CAKI-1 = assay: Growth inhibition of human Caki1 cells after 48 hrs by SRB assay; settings: CAKI-1, 48 h
RXF 393 = assay: Growth inhibition of human […] cells after 48 hrs by SRB assay; settings: RXF 393, 48 h
SN12C = assay: Growth inhibition of human SN12C cells after 48 hrs by SRB assay
TK-10 = assay: Growth inhibition of human TK10 cells after 48 hrs by SRB assay; settings: TK-10, 48 h
UO-31 = assay: Growth inhibition of human UO31 cells after 48 hrs by SRB assay; settings: UO-31, 48 h
PC-3 = assay: Growth inhibition of human PC3 cells after 48 hrs by SRB assay; settings: PC-3, 48 h
DU-145 = assay: Growth inhibition of human DU145 cells after 48 hrs by SRB assay; settings: DU-145, 48 h
MCF7 = assay: Growth inhibition of human MCF7 cells after 48 hrs by SRB assay; settings: MCF7, 48 h
NCI/ADR-RES = assay: Growth inhibition of human NCI/ADR-RES cells after 48 hrs by SRB assay
MDA-MB-231 = assay: Growth inhibition of human MDA-MB-231 cells after 48 hrs by SRB assay; settings: MDA-MB-231, 48 h
[1] = Growth inhibition of human Hs 578T cells after 48 hrs by SRB assay
MDA-MB-435 = assay: Growth inhibition of human MDA-MB-435 cells after 48 hrs by SRB assay; settings: MDA-MB-435, 48 h
BT-549 = assay: Growth inhibition of human BT549 cells after 48 hrs by SRB assay; settings: BT-549, 48 h
T47D = assay: Growth inhibition of human T47D cells after 48 hrs by SRB assay
KM12 = assay: Growth inhibition of human KM12 cells after 48 hrs by SRB assay; settings: KM12, 48 h
SW-620 = assay: Growth inhibition of human SW620 cells after 48 hrs by SRB assay; settings: SW-620, 48 h
SF-268 = assay: Growth inhibition of human SF268 cells after 48 hrs by SRB assay; settings: SF-268, 48 h
SF-295 = assay: Growth inhibition of human SF295 cells after 48 hrs by SRB assay; settings: SF-295, 48 h
SF-539 = assay: Growth inhibition of human SF539 cells after 48 hrs by SRB assay; settings: SF-539, 48 h
SNB-19 = assay: Growth inhibition of human SNB19 cells after 48 hrs by SRB assay; settings: SNB-19, 48 h
SNB-75 = assay: Growth inhibition of human SNB75 cells after 48 hrs by SRB assay; settings: SNB-75, 48 h
U-251 = assay: Growth inhibition of human U251 cells after 48 hrs by SRB assay; settings: U-251, 48 h

Measured: GI50

COc1ccc(NC(=O)Nc2n[nH]c3ccccc23)cc1
59.6 µM: CCRF-CEM
100 µM: T47D
> 100 µM: all other assays above
